Data as given in PubChem BioAssay AID2060489 (Molecular Pharmacology Branch, DTP, NCI, 2025).
Values belong to the compound of their own block, whether it stands above or below them.

Tested on: 922993-354-T-J3-PDC complex spheroids, viability
Assay: Anticancer human tumor 922993-354-T-J3-PDC patient-derived endometrial carcinoma cell line growth inhibition [GQUAD]
Conditions: for IC50: curve of first compound; for viability, T/C: stronger effect = lower value
Summary of the method: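 Multi-cell-type spheroids of tumor cells with HUVEC and mesenchymal stem cells, treated with drug combinations. Concentrations descend in half-log steps from near clinical Cmax, or from 10 microM where Cmax is unknown; viability read-out.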

[1] = second compound 0.0316 µM, first compound 0.0316 µM
[2] = second compound 0.0316 µM, first compound 0.1 µM
[3] = second compound 0.0316 µM, first compound 0.316 µM
[4] = second compound 0.0316 µM, first compound 1 µM
[5] = second compound 0.0316 µM, first compound 3.16 µM
[6] = second compound 0.0316 µM, first compound 10 µM
[7] = second compound 0.1 µM, first compound 0.0316 µM
[8] = second compound 0.1 µM, first compound 0.1 µM
[9] = second compound 0.1 µM, first compound 0.316 µM
[10] = second compound 0.1 µM, first compound 1 µM
[11] = second compound 0.1 µM, first compound 3.16 µM
[12] = second compound 0.1 µM, first compound 10 µM
[13] = second compound 0.316 µM, first compound 0.0316 µM
[14] = second compound 0.316 µM, first compound 0.1 µM
[15] = second compound 0.316 µM, first compound 0.316 µM
[16] = second compound 0.316 µM, first compound 1 µM
[17] = second compound 0.316 µM, first compound 3.16 µM
[18] = second compound 0.316 µM, first compound 10 µM
[19] = second compound 1 µM, first compound 0.0316 µM
[20] = second compound 1 µM, first compound 0.1 µM
[21] = second compound 1 µM, first compound 0.316 µM
[22] = second compound 1 µM, first compound 1 µM
[23] = second compound 1 µM, first compound 3.16 µM
[24] = second compound 1 µM, first compound 10 µM
[25] = second compound 3.16 µM, first compound 0.0316 µM
[26] = second compound 3.16 µM, first compound 0.1 µM
[27] = second compound 3.16 µM, first compound 0.316 µM
[28] = second compound 3.16 µM, first compound 1 µM
[29] = second compound 3.16 µM, first compound 3.16 µM
[30] = second compound 3.16 µM, first compound 10 µM
[31] = second compound 10 µM, first compound 0.0316 µM
[32] = second compound 10 µM, first compound 0.1 µM
[33] = second compound 10 µM, first compound 0.316 µM
[34] = second compound 10 µM, first compound 1 µM
[35] = second compound 10 µM, first compound 3.16 µM
[36] = second compound 10 µM, first compound 10 µM
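Further: spheroids exposed to compounds for seven days.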
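Wherever viability, T/C is given: 100% = DMSO vehicle control viability.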

SMILES: O=C(NO)c1cnc(N2CCN(S(=O)(=O)c3ccc4ccccc4c3)CC2)nc1 + Cc1[nH]c2ccc(F)cc2c1-c1nc2c3cccnc3c3ncccc3c2[nH]1
IC50 (second compound 0.0316 µM): 409 nM | IC50 (second compound 0.1 µM): 542 nM | IC50 (second compound 0.316 µM): 772 nM | IC50 (second compound 1 µM): 870 nM | IC50 (second compound 3.16 µM): 1120 nM | IC50 (second compound 10 µM): 921 nM | viability, T/C [1]: 116% | viability, T/C [2]: 89.1% | viability, T/C [3]: 52.9% | viability, T/C [4]: 34.6% | viability, T/C [5]: 3.09% | viability, T/C [6]: 0.42% | viability, T/C [7]: 114% | viability, T/C [8]: 89.5% | viability, T/C [9]: 65% | viability, T/C [10]: 38.6% | viability, T/C [11]: 3.39% | viability, T/C [12]: 0.48% | viability, T/C [13]: 93.2% | viability, T/C [14]: 95.9% | viability, T/C [15]: 72.2% | viability, T/C [16]: 46.6% | viability, T/C [17]: 4.7% | viability, T/C [18]: 0.61% | viability, T/C [19]: 84.2% | viability, T/C [20]: 90.3% | viability, T/C [21]: 68.7% | viability, T/C [22]: 51.2% | viability, T/C [23]: 6.64% | viability, T/C [24]: 0.62% | viability, T/C [25]: 75.7% | viability, T/C [26]: 86.5% | viability, T/C [27]: 91.1% | viability, T/C [28]: 51.4% | viability, T/C [29]: 15% | viability, T/C [30]: 0.64% | viability, T/C [31]: 82.8% | viability, T/C [32]: 101% | viability, T/C [33]: 74.7% | viability, T/C [34]: 48.2% | viability, T/C [35]: 14.7% | viability, T/C [36]: 0.76%

IC50 (second compound 0.0316 µM): > 10000 nM | IC50 (second compound 0.1 µM): 4160 nM | IC50 (second compound 0.316 µM): < 31.6 nM | IC50 (second compound 1 µM): > 10000 nM | IC50 (second compound 3.16 µM): < 31.6 nM | IC50 (second compound 10 µM): < 31.6 nM
SMILES: Cc1cccc(N(C)C(=O)C2C(O)CCN2c2nc(C)cc(C(F)(F)F)c2C#N)c1 (stereo unspecified) + Cc1cnc(CNC(=O)c2c(=O)c3ccc(N4CCCN(C)CC4)nc3n3c2sc2ccccc23)cn1
viability, T/C [1]: 78% | viability, T/C [2]: 87.2% | viability, T/C [3]: 88% | viability, T/C [4]: 77.9% | viability, T/C [5]: 74.6% | viability, T/C [6]: 68.6% | viability, T/C [7]: 65.1% | viability, T/C [8]: 62.4% | viability, T/C [9]: 59% | viability, T/C [10]: 52.9% | viability, T/C [11]: 55.8% | viability, T/C [12]: 43.9% | viability, T/C [13]: 50.3% | viability, T/C [14]: 42.7% | viability, T/C [15]: 43.4% | viability, T/C [16]: 53.7% | viability, T/C [17]: 45.5% | viability, T/C [18]: 47.1% | viability, T/C [19]: 54.7% | viability, T/C [20]: 59% | viability, T/C [21]: 54.4% | viability, T/C [22]: 46.1% | viability, T/C [23]: 57.8% | viability, T/C [24]: 53.5% | viability, T/C [25]: 50.9% | viability, T/C [26]: 44.4% | viability, T/C [27]: 41.3% | viability, T/C [28]: 46.1% | viability, T/C [29]: 51.1% | viability, T/C [30]: 44.6% | viability, T/C [31]: 39.6% | viability, T/C [32]: 48.5% | viability, T/C [33]: 56.8% | viability, T/C [34]: 39.1% | viability, T/C [35]: 50.6% | viability, T/C [36]: 41.4%

IC50 (second compound 0.0316 µM): 11.3 nM | IC50 (second compound 0.1 µM): 5.27 nM | IC50 (second compound 0.316 µM): < 0.999 nM | IC50 (second compound 1 µM): 5.12 nM | IC50 (second compound 3.16 µM): < 0.999 nM | IC50 (second compound 10 µM): < 0.999 nM
SMILES: CCc1c2c(nc3ccc(O)cc13)-c1cc3c(c(=O)n1C2)COC(=O)[C@]3(O)CC + Cc1cnc(CNC(=O)c2c(=O)c3ccc(N4CCCN(C)CC4)nc3n3c2sc2ccccc23)cn1
viability, T/C (second compound 0.0316 µM, first compound 0.000999 µM): 85.3% | viability, T/C (second compound 0.0316 µM, first compound 0.00316 µM): 74.5% | viability, T/C (second compound 0.0316 µM, first compound 0.00999 µM): 54.5% | viability, T/C [1]: 25.2% | viability, T/C (second compound 0.0316 µM, first compound 0.0999 µM): 24.4% | viability, T/C [3]: 31.6% | viability, T/C (second compound 0.1 µM, first compound 0.000999 µM): 66.8% | viability, T/C (second compound 0.1 µM, first compound 0.00316 µM): 63.4% | viability, T/C (second compound 0.1 µM, first compound 0.00999 µM): 33.2% | viability, T/C [7]: 23.4% | viability, T/C (second compound 0.1 µM, first compound 0.0999 µM): 29.4% | viability, T/C [9]: 33.4% | viability, T/C (second compound 0.316 µM, first compound 0.000999 µM): 53.9% | viability, T/C (second compound 0.316 µM, first compound 0.00316 µM): 43.3% | viability, T/C (second compound 0.316 µM, first compound 0.00999 µM): 32.2% | viability, T/C [13]: 26.3% | viability, T/C (second compound 0.316 µM, first compound 0.0999 µM): 45.5% | viability, T/C [15]: 52.1% | viability, T/C (second compound 1 µM, first compound 0.000999 µM): 48.7% | viability, T/C (second compound 1 µM, first compound 0.00316 µM): 60.6% | viability, T/C (second compound 1 µM, first compound 0.00999 µM): 43.5% | viability, T/C [19]: 37% | viability, T/C (second compound 1 µM, first compound 0.0999 µM): 42.1% | viability, T/C [21]: 38.1% | viability, T/C (second compound 3.16 µM, first compound 0.000999 µM): 44.7% | viability, T/C (second compound 3.16 µM, first compound 0.00316 µM): 44% | viability, T/C (second compound 3.16 µM, first compound 0.00999 µM): 46.5% | viability, T/C [25]: 49% | viability, T/C (second compound 3.16 µM, first compound 0.0999 µM): 47.4% | viability, T/C [27]: 38.8% | viability, T/C (second compound 10 µM, first compound 0.000999 µM): 37.6% | viability, T/C (second compound 10 µM, first compound 0.00316 µM): 49.3% | viability, T/C (second compound 10 µM, first compound 0.00999 µM): 45.3% | viability, T/C [31]: 44.1% | viability, T/C (second compound 10 µM, first compound 0.0999 µM): 45% | viability, T/C [33]: 26%
